Patent US20090176968A1, “Preparation of Triazole Containing Metal Chelating Agents” (PAUL SCHERRER INSTITUT, priority 2006, published 2009)

SMILES | melting point
NC(Cc1cn(Cc2ccccc2)nn1)C(=O)O (stereo not drawn) [Compound L1] | > 195 °C (dec.)
CCOC(=O)Cn1cc(C[C@H](N)C(=O)O)nn1 [Compound L3] | 272 to 274 °C
N[C@@H](Cn1cc(Cc2ccccc2)nn1)C(=O)O [Compound L7] | > 220 °C (dec.)
